Measurements from the C3SDB collision cross section collection.
Values joined by “and” are separate entries in the source; they are usually repeats but may differ in a detail not shown here. Equal values may be shown once. Where a name gives a salt, the structure may show the parent alone.

Conditions: instrument: DT, single field, calibrated with ESI Low Concentration Tuning Mix (Agilent)

| SMILES | collision cross section (N2) ([M+H]+) | collision cross section (N2) ([M+Na-2H]-) | collision cross section (N2) ([M+Na]+) | collision cross section (N2) ([M-H]-) | collision cross section (N2) ([M+K]+) [Å²] |
| --- | --- | --- | --- | --- | --- |
| Nc1nc(=O)c2ncn([C@@H]3O[C@H](COP(=O)(O)OP(=O)(O)O)[C@@H](O)[C@H]3O)c2[nH]1 [GUANOSINE DIPHOSPHATE] | 192 Å² | 186.4 Å² | 188.4 Å² | 182.4 Å² |  |
| Nc1nc(=O)c2ncn([C@@H]3O[C@H](COP(=O)(O)OP(=O)(O)OP(=O)(O)O)[C@@H](O)[C@H]3O)c2[nH]1 [GUANOSINE TRIPHOSPHATE] |  | 184.2 Å² |  | 193 Å² |  |
| Nc1nc(=O)c2ncn([C@@H]3O[C@H](CO)[C@@H](O)[C@H]3O)c2[nH]1 [GUANOSINE] | 163.4 Å² |  | 174.9 Å² | 162.1 Å² | 174.3 |
| NCCc1cnc[nH]1 [HISTAMINE] | 120.4 Å² |  |  |  |  |
| N[C@@H](Cc1cnc[nH]1)C(=O)O [HISTIDINE] | 131.7 Å² and 132.1 Å² |  | 134.6 Å² and 134.8 Å² | 128.1 Å² and 128.5 Å² |  |
| NC(CO)Cc1cnc[nH]1 (stereo unspecified) [HISTIDINOL] | 128.7 Å² |  | 131.9 Å² | 127.5 Å² |  |
| N[C@@H](CCS)C(=O)O [HOMOCYSTEINE] | 130.3 Å² | 127.6 Å² |  | 143.6 Å² |  |
| NC(CCSSCCC(N)C(=O)O)C(=O)O (stereo unspecified) [HOMOCYSTINE] | 158 Å² | 154.2 Å² | 158.8 Å² | 151.6 Å² |  |
| O=c1nc[nH]c2c1ncn2[C@@H]1O[C@H](CO)[C@@H](O)[C@H]1O [INOSINE] |  |  | 170.8 Å² | 158.2 Å² | 170.2 |
| O=C(O)CC(C(=O)O)C(O)C(=O)O (stereo unspecified) [ISOCITRATE] |  | 136.4 Å² | 142.7 Å² | 127 Å² |  |
| C=C(CC(=O)O)C(=O)O [ITACONATE] |  |  | 131.7 Å² | 118.7 Å² |  |
| N[C@@H](Cc1ccc(O)c(O)c1)C(=O)O [L-DOPA] | 149.4 Å² |  | 147.5 Å² | 140.6 Å² |  |
| CC(C)C[C@H](N)C(=O)O [LEUCINE] | 134.8 Å² |  |  | 130.6 Å² |  |
| CCCCC/C=C\C/C=C\CCCCCCCC(=O)O [LINOLEATE] |  |  | 177 Å² |  |  |
| O=C(O)CC(O)C(=O)O (stereo unspecified) [MALATE] |  |  |  | 115.9 Å² |  |
| OC[C@H]1O[C@H](O[C@H]2[C@H](O)[C@@H](O)[C@H](O)O[C@@H]2CO)[C@H](O)[C@@H](O)[C@@H]1O [MALTOSE] |  |  | 178.9 Å² | 180.1 Å² | 181.7 |
| O=C([O-])C(O)c1ccccc1 (stereo unspecified) [MANDELATE] |  |  |  | 130.2 Å² |  |
| OC[C@H]1OC(O)[C@@H](O)[C@@H](O)[C@@H]1O (stereo partly specified) [MANNOSE] |  |  | 141.5 Å² |  |  |
| C[C@@](O)(CCO)CC(=O)[O-] [MEVALONATE] |  |  | 132.9 Å² | 128.7 Å² |  |
| OC1C(O)C(O)C(O)C(O)C1O (stereo unspecified) [MYOINOSITOL] |  |  | 148.6 Å² | 131.3 Å² |  |
| CC(=O)N[C@@H](CCC(=O)O)C(=O)O [N-ACETYLGLUTAMATE] |  | 143.3 Å² | 142.4 Å² | 136.9 Å² |  |
| CC(=O)N[C@@H](CC(C)C)C(=O)O [N-ACETYLLEUCINE] |  |  | 149.9 Å² | 140.5 Å² |  |
| CC(=O)N[C@H]1[C@H]([C@H](O)[C@H](O)CO)OC(O)(C(=O)O)C[C@@H]1O (stereo partly specified) [N-ACETYLNEURAMINATE] | 166.5 Å² | 171.4 Å² | 168.7 Å² | 158.5 Å² and 163.8 Å² |  |
| CN[C@@H](CCC(=O)O)C(=O)O [N-METHYLGLUTAMATE] | 132.2 Å² | 137.2 Å² |  | 129.5 Å² |  |
| CNCCc1c[nH]c2ccccc12 [N-METHYLTRYPTAMINE] | 142.5 Å² |  |  |  |  |
| O=C([O-])c1cccnc1 [NICOTINATE] |  |  |  | 121 Å² |  |
| COc1cc(C(O)CN)ccc1O (stereo unspecified) [NORMETANEPHRINE] |  |  | 155 Å² |  |  |

| SMILES | collision cross section (N2) ([M+H]+) | collision cross section (N2) ([M+Na-2H]-) | collision cross section (N2) ([M+Na]+) | collision cross section (N2) ([M-H]-) | collision cross section (N2) ([M+K]+) [Å²] |
| --- | --- | --- | --- | --- | --- |
| O=C(O)CCCCCCCCCCCO [OMEGA-HYDROXYDODECANOATE] |  |  | 160.3 Å² | 152.6 Å² |  |
| O=C(O)CCCC(=O)C(=O)O [OXOADIPATE] |  | 132.2 Å² | 137.9 Å² | 126.5 Å² |  |
| CCCCCC/C=C\CCCCCCCC(=O)O [PALMITOLEATE] |  |  |  | 167.3 Å² |  |
| CCCCCCCCCCCCCCCC(=O)OC(CC(=O)[O-])C[N+](C)(C)C (stereo unspecified) [PALMITOYLCARNITINE] | 213.9 Å² |  | 219.7 Å² |  |  |
| CN(CC(=O)O)/C(N)=N/P(=O)(O)O [PHOSPHOCREATINE] | 144.6 Å² and 144.8 Å² | 142.7 Å² and 142.8 Å² |  |  |  |
| C=C(OP(=O)(O)O)C(=O)O [PHOSPHOENOLPYRUVATE] |  |  | 138 Å² and 138.4 Å² |  |  |
| O=C(O)CP(=O)(O)O [PHOSPHONOACETATE] |  |  | 134.5 Å² |  |  |
| CC(=O)[C@H]1CC[C@H]2[C@@H]3CC=C4C[C@@H](OS(=O)(=O)O)CC[C@]4(C)[C@H]3CC[C@]12C [PREGNENOLONE SULFATE] |  |  |  | 206.2 Å² |  |
| O=C(O)[C@@H]1CCCN1 [PROLINE] | 125.1 Å² |  |  | 124.5 Å² |  |
| C=Cc1c(C)c2cc3[nH]c(cc4nc(cc5nc(cc1[nH]2)C(C)=C5CCC(=O)O)C(CCC(=O)O)=C4C)c(C)c3C=C [PROTOPORPHYRIN] | 241.3 Å² |  |  |  |  |
| OCC1(O)OC[C@@H](O)[C@@H](O)[C@H]1O (stereo partly specified) [PSICOSE] |  |  | 137.6 Å² |  |  |
| Nc1nc(=O)c2nccnc2[nH]1 [PTERIN] | 128.6 Å² |  | 143.4 Å² | 128.1 Å² |  |
| Cc1ncc(COP(=O)(O)O)c(C=O)c1O [PYRIDOXAL-PHOSPHATE] | 151.3 Å² | 153.2 Å² | 160.8 Å² | 149.4 Å² |  |
| O=C(O)C1(O)C[C@@H](O)C(O)[C@H](O)C1 (stereo partly specified) [QUINATE] |  |  | 151.7 Å² | 134.5 Å² |  |
| CC(=O)Oc1cccc(O)c1 [RESORCINOL MONOACETATE] |  |  |  | 126.1 Å² |  |
| OC[C@@H](O)C(O)[C@@H](O)CO (stereo partly specified) [RIBITOL] |  |  | 136.2 Å² | 125.8 Å² |  |
| NC(CSCC(=O)O)C(=O)O (stereo unspecified) [S-CARBOXYMETHYLCYSTEINE] | 137.1 Å² | 136.7 Å² | 138.2 Å² | 130 Å² |  |
| O=C(O)c1ccccc1[O-] [SALICYLATE] |  |  |  | 119.8 Å² |  |
| NCCCNCCCCNCCCN [SPERMINE] | 148.6 Å² |  | 151.5 Å² |  |  |
| CCCCCCCCCCCCCCC[C@@H](O)[C@@H](N)CO [SPHINGANINE] | 189 Å² |  | 191.1 Å² |  |  |
| Cn1cnc2c1c(=O)[nH]c(=O)n2C [THEOBROMINE] | 131.2 Å² and 136.9 Å² |  |  |  |  |
| C[C@@H](O)[C@H](N)C(=O)O [THREONINE] | 126.7 Å² |  |  | 120.2 Å² |  |
| O=C(O)[C@@H]1C[C@@H](O)CN1 [TRANS-4-HYDROXY-L-PROLINE] | 127.9 Å² |  | 139.3 Å² | 126.2 Å² and 126.3 Å² |  |
| O=C/C=C/c1ccccc1 [TRANS-CINNAMALDEHYDE] | 121.5 Å² |  |  |  |  |
| O=C(O)c1c[nH]c(=O)[nH]c1=O [URACIL 5-CARBOXYLATE] |  |  | 139.8 Å² | 118.9 Å² |  |
| O=c1[nH]c(=O)c2[nH]c(=O)[nH]c2[nH]1 [URATE] | 130.7 Å² |  |  |  |  |
